According to paper PMC10804372, “Degradation by Design: New Cyclin K Degraders from Old CDK Inhibitors” (ACS Chemical Biology, 2024):

How the values were obtained:
[1] = tested on: Cyclin K; assay: Cyclin K levels by Western blot after single-concentration treatment; assay type: cell-based, human; conditions: HEK293T cells, 1 μM for 2 h, quantified from Western blots, mean ± SD, three independent experiments
Procedure, shortened: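 Cyclin K quantified by Western blot of HEK293T lysates after a single compound concentration, with ImageJ densitometry normalized to GAPDH. Cells grown in DMEM/10% FBS at 37 °C, 5% CO2.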

[2] = tested on: Cyclin K; assay: Cyclin K degradation concentration-response (DC50, DMax) by Western blot; assay type: cell-based, human; conditions: HEK293T, Western blot quantification, 3 biological repeats
Procedure, shortened: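 HEK293T cells treated across a concentration range; lysates immunoblotted for Cyclin K with GAPDH as loading control, ECL detection. Band intensities quantified, Cyclin K normalized to GAPDH, and DC50 derived by 4-parameter nonlinear regression of concentration–response curves.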

[3] = biological target: T1, CDK12 (Homo sapiens, UniProt Q9NYV4); assay: KINOMEscan binding assay (Eurofins DiscoverX); conditions: KINOMEscan
T1 construct: purchased Eurofins DiscoverX (KINOMEscan service)
T1 sequence (Q9NYV4 whole entry): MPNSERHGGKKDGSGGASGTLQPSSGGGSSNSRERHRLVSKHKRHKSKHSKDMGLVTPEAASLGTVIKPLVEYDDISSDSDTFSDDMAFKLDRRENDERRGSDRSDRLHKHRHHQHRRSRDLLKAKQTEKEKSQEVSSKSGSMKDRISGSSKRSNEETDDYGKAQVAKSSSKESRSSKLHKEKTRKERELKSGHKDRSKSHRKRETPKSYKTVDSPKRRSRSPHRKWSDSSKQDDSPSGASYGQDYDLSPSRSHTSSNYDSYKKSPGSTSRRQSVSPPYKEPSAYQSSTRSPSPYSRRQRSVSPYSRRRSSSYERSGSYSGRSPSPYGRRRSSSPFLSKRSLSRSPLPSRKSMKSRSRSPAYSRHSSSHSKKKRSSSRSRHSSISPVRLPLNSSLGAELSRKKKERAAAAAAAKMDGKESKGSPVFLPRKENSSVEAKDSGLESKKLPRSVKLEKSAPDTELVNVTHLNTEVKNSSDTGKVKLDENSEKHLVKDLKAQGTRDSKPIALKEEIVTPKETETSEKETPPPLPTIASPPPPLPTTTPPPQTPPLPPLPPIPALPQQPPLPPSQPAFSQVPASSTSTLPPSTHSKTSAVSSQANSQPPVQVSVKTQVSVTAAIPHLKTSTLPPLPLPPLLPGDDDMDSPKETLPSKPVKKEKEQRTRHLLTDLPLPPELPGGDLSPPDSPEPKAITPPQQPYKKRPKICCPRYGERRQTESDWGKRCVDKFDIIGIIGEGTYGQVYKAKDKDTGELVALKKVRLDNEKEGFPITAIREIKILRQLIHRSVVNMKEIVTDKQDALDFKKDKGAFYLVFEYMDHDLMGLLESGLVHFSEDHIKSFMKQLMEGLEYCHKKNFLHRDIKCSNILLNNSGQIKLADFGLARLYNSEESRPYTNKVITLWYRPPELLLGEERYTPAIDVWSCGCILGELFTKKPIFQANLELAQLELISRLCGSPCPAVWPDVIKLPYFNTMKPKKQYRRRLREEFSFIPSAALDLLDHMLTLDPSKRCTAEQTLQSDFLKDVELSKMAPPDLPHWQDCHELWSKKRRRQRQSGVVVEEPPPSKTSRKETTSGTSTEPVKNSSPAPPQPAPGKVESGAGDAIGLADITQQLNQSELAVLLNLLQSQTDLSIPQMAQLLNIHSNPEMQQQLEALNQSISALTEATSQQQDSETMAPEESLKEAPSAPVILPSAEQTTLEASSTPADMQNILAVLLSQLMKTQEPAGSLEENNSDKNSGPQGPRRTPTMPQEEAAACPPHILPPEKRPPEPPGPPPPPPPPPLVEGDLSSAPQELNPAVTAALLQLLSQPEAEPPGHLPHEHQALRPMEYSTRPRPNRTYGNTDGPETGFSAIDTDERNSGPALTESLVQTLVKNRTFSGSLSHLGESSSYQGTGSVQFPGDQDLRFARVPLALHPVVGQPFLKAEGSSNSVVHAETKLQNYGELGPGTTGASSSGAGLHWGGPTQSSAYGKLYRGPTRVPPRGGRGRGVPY

[4] = tested on: HEK293T cells; assay: Proteome-wide quantitation by mass spectrometry (TMT); assay type: cell-based, human; conditions: for log2FC compound 41: 1uM, 2h

## O=C(NCc1ccc(C2=CCOCC2)cc1)c1n[nH]cc1NC(=O)c1c(Cl)cccc1Cl [compound 41]
[1]
  Remaining Cyclin K (%): 3 ± 1%
[2]
  DMax (%): >95%
[2]; read-out: CycK DC50
  DC50: 0.141 µM
[3]
  Kd: 3.8 µM
[4]
  log2FC compound 41: 1.1108
[4]; HEK293T, 1 μM, 2 h treatment
  number of proteins showing at least a −0.5 log2 fold change: 33 proteins
[4]; protein AKR7A2 (Aflatoxin B1 aldehyde reductase member 2, O43488)
  log2FC compound 41: -0.7339
[4]; protein ALG10 (Dol-P-Glc:Glc(2)Man(9)GlcNAc(2)-PP-Dol alpha-1,2-glucosyltransferase, Q5BKT4)
  log2FC compound 41: 0.9798
[4]; protein ALKBH2 (DNA oxidative demethylase ALKBH2, Q6NS38)
  log2FC compound 41: 0.728
[4]; protein ARF4 (ADP-ribosylation factor 4, P18085)
  log2FC compound 41: 0.7714
[4]; protein ATP6AP1 (V-type proton ATPase subunit S1, Q15904)
  log2FC compound 41: 0.6251
[4]; protein B3GLCT (Beta-1,3-glucosyltransferase, Q6Y288)
  log2FC compound 41: 0.6029
[4]; protein BTF3L4 (Transcription factor BTF3 homolog 4, Q96K17)
  log2FC compound 41: 0.5924
[4]; protein C1orf167 (Uncharacterized protein C1orf167, Q5SNV9)
  log2FC compound 41: 1.3705
[4]; protein CCNK (Cyclin-K, O75909)
  log2FC compound 41: -1.4213
[4]; protein CD9 (CD9 antigen, P21926)
  log2FC compound 41: 0.6995
[4]; protein CD59 (CD59 glycoprotein, P13987)
  log2FC compound 41: 1.3635
[4]; protein CD63 (CD63 antigen, P08962)
  log2FC compound 41: 1.3469
[4]; protein CD151 (CD151 antigen, P48509)
  log2FC compound 41: 0.7942
[4]; protein CDKL5 (Cyclin-dependent kinase-like 5, O76039)
  log2FC compound 41: 1.2994
[4]; protein CENPW (Centromere protein W, Q5EE01)
  log2FC compound 41: 0.6212
[4]; protein CERS1 (Ceramide synthase 1, P27544)
  log2FC compound 41: 0.5956
[4]; protein CHCHD1 (Coiled-coil-helix-coiled-coil-helix domain-containing protein 1, Q96BP2)
  log2FC compound 41: -0.843
[4]; protein CHCHD2 (Coiled-coil-helix-coiled-coil-helix domain-containing protein 2, Q9Y6H1)
  log2FC compound 41: -0.961
[4]; protein CNOT8 (CCR4-NOT transcription complex subunit 8, Q9UFF9)
  log2FC compound 41: 0.5912
[4]; protein COA7 (Cytochrome c oxidase assembly factor 7, Q96BR5)
  log2FC compound 41: -0.7413
[4]; protein COPRS (Coordinator of PRMT5 and differentiation stimulator, Q9NQ92)
  log2FC compound 41: 0.7957
[4]; protein COX6B1 (Cytochrome c oxidase subunit 6B1, P14854)
  log2FC compound 41: 0.7689
[4]; protein COX7A2 (Cytochrome c oxidase subunit 7A2, mitochondrial, P14406)
  log2FC compound 41: -1.7055
[4]; protein CSNK2B (Casein kinase II subunit beta, P67870)
  log2FC compound 41: 0.62
[4]; protein CTSV (Cathepsin L2, O60911)
  log2FC compound 41: 0.7835
[4]; protein DCDC1 (Doublecortin domain-containing protein 1, M0R2J8)
  log2FC compound 41: 1.8264
[4]; protein DHX58 (Probable ATP-dependent RNA helicase DHX58, Q96C10)
  log2FC compound 41: 1.0451
[4]; protein DNAJC5 (DnaJ homolog subfamily C member 5, Q9H3Z4)
  log2FC compound 41: 0.994
[4]; protein DNPEP (Aspartyl aminopeptidase, Q9ULA0)
  log2FC compound 41: 0.6304
[4]; protein DYNLL1 (Dynein light chain 1, cytoplasmic, P63167)
  log2FC compound 41: -0.6985
[4]; protein ECI1 (Enoyl-CoA delta isomerase 1, mitochondrial, P42126)
  log2FC compound 41: 0.8277
[4]; protein EI24 (Etoposide-induced protein 2.4 homolog, O14681)
  log2FC compound 41: 0.8122
[4]; protein EIF5A2 (Eukaryotic translation initiation factor 5A-2, Q9GZV4)
  log2FC compound 41: 1.4183
[4]; protein ELP5 (Elongator complex protein 5, Q8TE02)
  log2FC compound 41: 0.6971
[4]; protein ERGIC3 (Endoplasmic reticulum-Golgi intermediate compartment protein 3, Q9Y282)
  log2FC compound 41: -0.6608
[4]; protein FAM219A (Protein FAM219A, Q8IW50)
  log2FC compound 41: 0.6921
[4]; protein FAM234A (Protein FAM234A, Q9H0X4)
  log2FC compound 41: 0.9598
[4]; protein GGH (Gamma-glutamyl hydrolase, Q92820)
  log2FC compound 41: 0.639
[4]; protein GNA15 (Guanine nucleotide-binding protein subunit alpha-15, P30679)
  log2FC compound 41: 1.1022
[4]; protein GYG2 (Glycogenin-2, O15488)
  log2FC compound 41: 0.8256
[4]; protein H2AC6 (Histone H2A type 1-C, Q93077)
  log2FC compound 41: -2.3143
[4]; protein H2AC14 (Histone H2A type 1-J, Q99878)
  log2FC compound 41: -2.3989
[4]; protein HMGN2 (Non-histone chromosomal protein HMG-17, P05204)
  log2FC compound 41: -0.8432
[4]; protein HNRNPA2B1 (Heterogeneous nuclear ribonucleoproteins A2/B1, P22626)
  log2FC compound 41: -0.5885
[4]; protein HSPB11 (Intraflagellar transport protein 25 homolog, Q9Y547)
  log2FC compound 41: 0.7236
[4]; protein KCTD1 (BTB/POZ domain-containing protein KCTD1, Q719H9)
  log2FC compound 41: 0.9367
[4]; protein KIAA0930 (Uncharacterized protein KIAA0930, Q6ICG6)
  log2FC compound 41: 0.6862
[4]; protein KIAA1549 (UPF0606 protein KIAA1549, Q9HCM3)
  log2FC compound 41: 0.7226
[4]; protein LIPA (Lysosomal acid lipase/cholesteryl ester hydrolase, P38571)
  log2FC compound 41: 0.766
[4]; protein LIPT2 (Putative lipoyltransferase 2, mitochondrial, A6NK58)
  log2FC compound 41: -0.7183
[4]; protein LPCAT3 (Lysophospholipid acyltransferase 5, Q6P1A2)
  log2FC compound 41: 1.5824
[4]; protein LPIN2 (Phosphatidate phosphatase LPIN2, Q92539)
  log2FC compound 41: 0.7762
[4]; protein LSM1 (U6 snRNA-associated Sm-like protein LSm1, O15116)
  log2FC compound 41: 1.1318
[4]; protein MEIS1 (Homeobox protein Meis1, O00470)
  log2FC compound 41: -0.7006
[4]; protein MGARP (Protein MGARP, Q8TDB4)
  log2FC compound 41: 0.8294
[4]; protein MKRN1 (E3 ubiquitin-protein ligase makorin-1, Q9UHC7)
  log2FC compound 41: 0.6085
[4]; protein MRPL24 (39S ribosomal protein L24, mitochondrial, Q96A35)
  log2FC compound 41: -0.8105
[4]; protein MSMO1 (Methylsterol monooxygenase 1, Q15800)
  log2FC compound 41: 0.6949
[4]; protein MT-ND4 (NADH-ubiquinone oxidoreductase chain 4, P03905)
  log2FC compound 41: 0.7038
[4]; protein NCBP2AS2 (Protein NCBP2AS2, Q69YL0)
  log2FC compound 41: -0.5975
[4]; protein NIPA2 (Magnesium transporter NIPA2, Q8N8Q9)
  log2FC compound 41: 0.8891
[4]; protein NSMCE4A (Non-structural maintenance of chromosomes element 4 homolog A, Q9NXX6)
  log2FC compound 41: 0.6459
[4]; protein NXT2 (NTF2-related export protein 2, Q9NPJ8)
  log2FC compound 41: 1.4453
[4]; protein ORC4 (Origin recognition complex subunit 4, O43929)
  log2FC compound 41: 0.6334
[4]; protein OSTC (Oligosaccharyltransferase complex subunit OSTC, Q9NRP0)
  log2FC compound 41: 0.6129
[4]; protein POP5 (Ribonuclease P/MRP protein subunit POP5, Q969H6)
  log2FC compound 41: 0.6256
[4]; protein PPP1CB (Serine/threonine-protein phosphatase PP1-beta catalytic subunit, P62140)
  log2FC compound 41: -0.8644
[4]; protein PRPF38A (Pre-mRNA-splicing factor 38A, Q8NAV1)
  log2FC compound 41: 0.6341
[4]; protein RBX1 (E3 ubiquitin-protein ligase RBX1, P62877)
  log2FC compound 41: 0.6251
[4]; protein RER1 (Protein RER1, O15258)
  log2FC compound 41: 0.5922
[4]; protein RPS29 (40S ribosomal protein S29, P62273)
  log2FC compound 41: -1.1057
[4]; protein SDHAF4 (Succinate dehydrogenase assembly factor 4, mitochondrial, Q5VUM1)
  log2FC compound 41: 0.8419
[4]; protein SEC11C (Signal peptidase complex catalytic subunit SEC11C, Q9BY50)
  log2FC compound 41: -0.5851
[4]; protein SERINC3 (Serine incorporator 3, Q13530)
  log2FC compound 41: 0.6778
[4]; protein SIAE (Sialate O-acetylesterase, Q9HAT2)
  log2FC compound 41: 0.753
[4]; protein SLC25A17 (Peroxisomal membrane protein PMP34, O43808)
  log2FC compound 41: 1.1015
[4]; protein SLC44A2 (Choline transporter-like protein 2, Q8IWA5)
  log2FC compound 41: 1.0845
[4]; protein SPCS1 (Signal peptidase complex subunit 1, Q9Y6A9)
  log2FC compound 41: 0.6654
[4]; protein STEAP2 (Metalloreductase STEAP2, Q8NFT2)
  log2FC compound 41: 0.6125
[4]; protein SURF4 (Surfeit locus protein 4, O15260)
  log2FC compound 41: 0.8751
[4]; protein TECR (Very-long-chain enoyl-CoA reductase, Q9NZ01)
  log2FC compound 41: 0.5914
[4]; protein TMCC3 (Transmembrane and coiled-coil domain protein 3, Q9ULS5)
  log2FC compound 41: 0.6529
[4]; protein TMED5 (Transmembrane emp24 domain-containing protein 5, Q9Y3A6)
  log2FC compound 41: 0.6722
[4]; protein TMEM41A (Transmembrane protein 41A, Q96HV5)
  log2FC compound 41: 0.881
[4]; protein TMSB4X (Thymosin beta-4, P62328)
  log2FC compound 41: -1.1542
[4]; protein TVP23C (Golgi apparatus membrane protein TVP23 homolog C, Q96ET8)
  log2FC compound 41: 0.698
[4]; protein UBE2R2 (Ubiquitin-conjugating enzyme E2 R2, Q712K3)
  log2FC compound 41: -0.7129
[4]; protein WHAMM (WASP homolog-associated protein with actin, membranes and microtubules, Q8TF30)
  log2FC compound 41: -0.8329
[4]; protein XPOT (Exportin-T, O43592)
  log2FC compound 41: 0.6641
[4]; protein ZBTB17 (Zinc finger and BTB domain-containing protein 17, Q13105)
  log2FC compound 41: 1.0947
